Earlier results as cited in publication PMC6008465 (British Journal of Cancer, 2018).

System: patients
Parameters: method as in Mekinist (trametinib) tablets package insert, Novartis 2017
Conditions: oral; ref Mekinist (trametinib) tablets package insert, Novartis 2017; cited from earlier work

CC(=O)Nc1cccc(-n2c(=O)n(C3CC3)c(=O)c3c(Nc4ccc(I)cc4F)n(C)c(=O)c(C)c32)c1 [trametinib]
Adverse events associated in clinical trials: retinal pigment epithelial detachment, retinal vein occlusion, interstitial lung disease, skin toxicity, and cardiomyopathy
